Consider 1 molecule from patent publication US11293927B2, “Screening methods for PARP modulators” (Ribon Therapeutics, Inc., priority 2018, dated 2022).

Each structure is given as a SMILES string.

What all share (assay type): binding
For one assay, the target named is T1, PARP14 (Homo sapiens, UniProt Q460N5).
T1 sequence (Q460N5 1611-1801): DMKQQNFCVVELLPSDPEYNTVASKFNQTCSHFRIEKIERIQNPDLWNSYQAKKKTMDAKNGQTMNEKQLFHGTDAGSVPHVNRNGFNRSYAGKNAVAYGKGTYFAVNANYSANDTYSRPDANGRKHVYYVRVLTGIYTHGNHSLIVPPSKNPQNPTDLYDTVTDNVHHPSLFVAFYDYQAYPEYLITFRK
Kind of assay: In vitro TR-FRET probe displacement assay (Probe C), PARP14. On the set-up: made in house; host or cells: E. coli. The following applies: TR-FRET displacement of Probe C, PARP14 residues 1611-1801. The protocol: A portion of PARP14 (residues 1611 to 1801 of NP_060024.2 (SEQ ID NO: 4), GenBank Accession No. NM_017554) was overexpressed in E. coli cells. An N-terminal fusion tag, […] (SEQ ID NO: 9), was used to purify the protein from cell lysates. The fusion tag was left on the protein for use in the probe displacement assay.
(§1) Displacement of a Probe C binding to monoPARP active sites was measured using a time-resolved fluorescence resonance energy transfer (TR-FRET) assay. 20 nL of a dose response curve of each test compound was spotted in black 384-well polystyrene proxiplates (Perkin Elmer) using a Mosquito (TTP Labtech). Reactions were performed in an 8 μL volume by adding 6 μL of the monoPARP and Probe C in assay buffer (20 mM HEPES pH=8, 100 mM NaCl, 0.1% bovine serum albumin, 2 mM DTT and 0.002% Tween20), incubating with test compound at 25° C. for 30 min, then adding 2 μL of ULight-anti 6×His and LANCE Eu-W 1024 labeled streptavidin (Perkin Elmer). Binding reactions were equilibrated at 25° C. for an additional 30 min, then read on an Envision platereader equipped with a LANCE/DELFIA top mirror (Perkin Elmer) using excitation of 320 nm and emission of 615 nm and […] with a 90 μs delay. The ratio of the 665/615 nm emission were calculated for each well to determine the amount of complex of monoPARP and Probe C in each well. […]
On the technique in general: Time-resolved FRET reads energy transfer from a long-lived donor to a nearby acceptor.

A further assay deals with T2, PARP16 (Homo sapiens, UniProt Q8N5Y8).
T2 construct: made in house; host or cells: E. coli
T2 sequence (Q8N5Y8 5-279 isoform Q8N5Y8-3): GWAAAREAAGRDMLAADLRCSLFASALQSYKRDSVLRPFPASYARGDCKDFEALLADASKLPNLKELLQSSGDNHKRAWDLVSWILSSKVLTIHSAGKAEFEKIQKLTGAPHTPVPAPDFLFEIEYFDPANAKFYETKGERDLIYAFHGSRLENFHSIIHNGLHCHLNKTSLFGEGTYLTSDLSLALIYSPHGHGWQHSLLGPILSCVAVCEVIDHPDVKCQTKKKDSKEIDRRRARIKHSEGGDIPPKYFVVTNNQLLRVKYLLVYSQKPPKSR
The assay can be described thus: In vitro TR-FRET probe displacement assay (Probe C), PARP16. The note with it: TR-FRET displacement of Probe C, PARP16 residues 5-279. The protocol:
A portion of PARP16 (residues 5 to 279 of NP_060321.3 (SEQ ID NO: 6), GenBank Accession No. NM_017851) was overexpressed in E. coli cells. An N-terminal fusion tag, […] (SEQ ID NO: 9), was used to purify the protein from cell lysates. The fusion tag was left on the protein for use in the probe displacement assay.
as §1

The next assay concerns the target T3, PARP12 (Homo sapiens, UniProt Q9H0J9).
T3 sequence (Q9H0J9 489-684): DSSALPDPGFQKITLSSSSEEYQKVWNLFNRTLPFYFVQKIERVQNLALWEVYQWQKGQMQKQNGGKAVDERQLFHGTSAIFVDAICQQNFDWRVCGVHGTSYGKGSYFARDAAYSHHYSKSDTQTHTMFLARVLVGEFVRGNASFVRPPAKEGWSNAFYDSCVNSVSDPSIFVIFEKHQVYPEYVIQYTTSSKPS
The assay can be described thus: In vitro TR-FRET probe displacement assay (Probe C), PARP12. On the set-up: 489-684 of. The note with it: TR-FRET displacement of Probe C, PARP12 residues 489-684. The protocol:
A portion of PARP12 (residues 489 to 684 of NP_073587.1 (SEQ ID NO: 3), GenBank Accession No. NM_022750.3) was overexpressed in Sf9 cells. An N-terminal fusion tag, MAHHHHHHENLYFQSM (SEQ ID NO: 8), was used to purify the protein from cell lysates. The fusion tag was left on the protein for use in the probe displacement assay.
as §1, with “in a” for “in an”, “of ULight-streptavidin” for “of ULight-anti 6×His”, “1024 Anti-6×His” for “1024 labeled streptavidin”

Turning to `O=c1[nH]ncc(N2Cc3ccc(OC4CCNCC4)cc3C2)c1C(F)(F)F` [Compound A, 5-[5-(Piperidin-4-yloxy)-2,3-dihydro-1H-isoindol-2-yl]-4-(trifluoromethyl)-2,3-dihydropyridazin-3-one], the half-maximal inhibitory concentration (IC50) (usually the concentration needed to halve the response being measured) at PARP14 was 50 nM; on PARP16, 100 nM; at PARP12, 200 nM.
